Molecular target: T1, Axl (Homo sapiens, UniProt P30530)
T1 construct: endogenous in cells; host or cells: HeLa cells
T1 sequence (P30530 26-894): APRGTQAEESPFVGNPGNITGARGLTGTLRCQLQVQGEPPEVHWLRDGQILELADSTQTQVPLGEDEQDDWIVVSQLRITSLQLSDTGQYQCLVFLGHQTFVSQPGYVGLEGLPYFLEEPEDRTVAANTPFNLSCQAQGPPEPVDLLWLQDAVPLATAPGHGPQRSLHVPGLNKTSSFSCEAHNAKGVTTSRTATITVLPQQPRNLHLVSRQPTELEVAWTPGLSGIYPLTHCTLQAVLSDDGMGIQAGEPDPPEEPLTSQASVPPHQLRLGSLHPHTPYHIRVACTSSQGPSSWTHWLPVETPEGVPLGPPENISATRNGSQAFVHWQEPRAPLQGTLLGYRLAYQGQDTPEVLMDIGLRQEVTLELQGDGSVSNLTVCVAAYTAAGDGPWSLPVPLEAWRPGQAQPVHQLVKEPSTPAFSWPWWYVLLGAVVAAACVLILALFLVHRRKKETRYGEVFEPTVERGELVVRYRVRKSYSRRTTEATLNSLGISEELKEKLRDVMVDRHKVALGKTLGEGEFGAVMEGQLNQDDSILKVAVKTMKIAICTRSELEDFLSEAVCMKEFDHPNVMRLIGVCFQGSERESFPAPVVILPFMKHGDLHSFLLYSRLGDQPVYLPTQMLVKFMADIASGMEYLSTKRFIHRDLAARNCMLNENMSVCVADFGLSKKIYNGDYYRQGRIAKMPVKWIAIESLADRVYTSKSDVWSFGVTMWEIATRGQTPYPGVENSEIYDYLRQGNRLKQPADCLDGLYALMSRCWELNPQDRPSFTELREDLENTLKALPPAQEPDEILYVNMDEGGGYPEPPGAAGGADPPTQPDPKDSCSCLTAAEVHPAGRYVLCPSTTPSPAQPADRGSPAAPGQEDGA
Test: Phospho-Akt in-cell Western assay
Type: cell-based
Conditions: Hela cells, stimulated by Axl-antibody cross-linking, phospho-Akt chemiluminescence; Table 1, formula (Ia)
Protocol: Phospho-Akt in-Cell Western Assay
The compounds of the invention were tested in the following assay for their ability to inhibit Axl activity.
• Cell culture plate: 96 well assay plate (Corning 3610), white, clear bottom, tissue-culture treated. • Cells: Hela cells. • Starvation medium: For Axl stimulation: 0.5% FCS (fetal calf serum) in DMEM, plus Axl/Fc (extracellular domain of AXL fused to imunoglobulin Fc region) (R&D, 154-AL) 500 ng/mL. • For EGF (epidermal growth factor) stimulation: 0.5% FCS in DMEM (Dulbecco's modified Eagles medium). • Poly-L-Lysine 0.01% solution (the working solution): 10 μg/ml, dilute In PBS (phosphate buffered saline). • Axl antibody cross-linking: • 1st: Mouse anti-Axl (R&D, MAB154). • 2nd: Biotin-SP-conjugated AffiniPure goat anti-mouse IgG (H+L) (Jackson ImmunoResearch #115-065-003). • Fixing buffer: 4% formaldehyde in PBS. • Wash buffer: 0.1% TritonX-100 in PBS. • Quenching buffer: 3% H2O2, 0.1% Azide in wash buffer, Azide and hydrogen peroxide (H2O2) are added fresh. • Blocking buffer: 5% BSA in TBST (tris buffered saline plus 0.1% Tween 20). • Primary antibody: Rabbit anti-human Phospho-Akt antibody (Cell Signaling 9271): 1×250 diluted in blocking buffer. • Secondary antibody: HRP (horse radish peroxidase)-conjugated Goat anti-Rabbit secondary, stock solution: Jackson ImmunoResearch (Goat anti-Rabbit HRP, #111-035-144) 1:1 diluted in glycerol, store at −20° C. The working solution: 1×2000 dilution of stock in blocking buffer. • Chemiluminescent working solution (Pierce, 37030): SuperSignal ELISA (enzyme linked immunosorbant assay) Pico Chemiluminescent substrate. • Crystal Violet solution: Stock: 2.5% Crystal violet in methanol, filtered and kept at ambient temperature. The working solution: dilute the stock 1:20 with PBS immediately before use. • 10% SDS: working solution: 5% SDS (sodium dodecylsulfate), diluted in PBS Methods: Day 1:
A 96 well TC (tissue culture treated) plate was coated with 10 μg/mL poly-L-Lysine at 37° C. for 30 min, washed twice with PBS, and air-dried for 5 minutes before cells were added. Hela cells were seeded at 10,000 cells/well and the cells were starved in 100 μL starvation medium containing Axl/Fc for 24 hrs.
The cells were pre-treated with test compounds by adding 100 μL of 2× test compound to the starvation medium on the cells. The cells were incubated at 37° C. for 1 hr before stimulation.
The cells were stimulated by Axl-antibody cross-linking as follows: A 5× 1st/2nd Axl antibody mixture was made (37.5 μg/mL 1st/100 μg/mL 2nd) in starvation medium and nutated at 4° C. with thorough mixing for 1-2 hours for clustering. The resulting mix was warmed to 37° C. 50 μL of 5× Axl 1st/2nd of antibody cluster was added to the cells and the cells were incubated at 37° C. for 5 min.
After 5 minutes stimulation, the plate was flicked to remove medium and the plate was tapped onto paper towels. Formaldehyde (4.0% in PBS, 100 μL) was added to fix the cells and the cells were incubated at ambient temperature for 20 min without shaking.
The cells were washed with a plate washer buffer to remove the formaldehyde solution. The plate was flicked to removed excess wash buffer and tapped onto paper towels. Quenching buffer (100 μL) was added to each well and the cells were incubated at ambient temperature for 20 minutes without shaking.
The cells were washed with a plate washer buffer to remove the quenching buffer. Blocking buffer (100 μL) was added and the cells were incubated at ambient temperature for at least an hour with gentle shaking.
The cells were washed with a plate washer buffer and diluted primary antibody (50 μL) was added to each well (blocking buffer was added to the negative control wells instead). The plates were incubated overnight at 4° C. with gentle shaking.
The wash buffer was removed, diluted secondary antibody (100 μL) was added, and the cells were incubated at ambient temperature for 1 hour with gentle shaking. […]

`CCC(CC)N[C@H]1CCc2ccc(Nc3nc(N)n(-c4cc5c(nn4)-c4ccccc4CCC5)n3)cc2CC1` [Compound 33, 1-(6,7-dihydro-5H-benzo[6,7]cyclohepta[1,2-c]pyridazin-3-yl)-N^3-((7S)-7-(3-pentylamino)-6,7,8,9-tetrahydro-5H-benzo[7]annulene-2-yl)-1H-1,2,4-triazole-3,5-diamine] and `CCC(CC)CN[C@H]1CCc2ccc(Nc3nc(N)n(-c4cc5c(nn4)-c4ccccc4CCC5)n3)cc2CC1` [Compound 41, 1-(6,7-dihydro-5H-benzo[6,7]cyclohepta[1,2-c]pyridazin-3-yl)-N^3-((7S)-7-(2-ethylbutylamino)-6,7,8,9-tetrahydro-5H-benzo[7]annulene-2-yl)-1H-1,2,4-triazole-3,5-diamine] cannot be ordered by IC50: under 1000 nM for the first, under 1000 nM for the second.

`CC(C)(C)CN[C@H]1CCc2ccc(Nc3nc(N)n(-c4cc5c(nn4)-c4ccccc4CCC5)n3)cc2CC1` [Compound 34, 1-(6,7-dihydro-5H-benzo[6,7]cyclohepta[1,2-c]pyridazin-3-yl)-N^3-((7S)-7-((2,2-dimethylpropyl)amino)-6,7,8,9-tetrahydro-5H-benzo[7]annulene-2-yl)-1H-1,2,4-triazole-3,5-diamine] and `CC=CCN[C@H]1CCc2ccc(Nc3nc(N)n(-c4cc5c(nn4)-c4ccccc4CCC5)n3)cc2CC1` [Compound 42, 1-(6,7-dihydro-5H-benzo[6,7]cyclohepta[1,2-c]pyridazin-3-yl)-N^3-((7S)-7-(but-2-enylamino)-6,7,8,9-tetrahydro-5H-benzo[7]annulene-2-yl)-1H-1,2,4-triazole-3,5-diamine] cannot be ordered by IC50: under 1000 nM for the first, under 1000 nM for the second.

First: Nc1nc(Nc2ccc3c(c2)CC[C@@H](N(CC2CCCC2)CC2CCCC2)CC3)nn1-c1cc2c(nn1)-c1ccccc1CCC2 [Compound 35, 1-(6,7-dihydro-5H-benzo[6,7]cyclohepta[1,2-c]pyridazin-3-yl)-N^3-((7S)-7-(di(cyclopentylmethyl)amino)-6,7,8,9-tetrahydro-5H-benzo[7]annulene-2-yl)-1H-1,2,4-triazole-3,5-diamine]
Second: Nc1nc(Nc2ccc3c(c2)CC[C@@H](NCC2CCCC2)CC3)nn1-c1cc2c(nn1)-c1ccccc1CCC2 [Compound 36, 1-(6,7-dihydro-5H-benzo[6,7]cyclohepta[1,2-c]pyridazin-3-yl)-N^3-((7S)-7-((cyclopentylmethyl)amino)-6,7,8,9-tetrahydro-5H-benzo[7]annulene-2-yl)-1H-1,2,4-triazole-3,5-diamine]
The IC50 of the first is higher: 1000 to 10000 nM for the first, under 1000 nM for the second.

First: Nc1nc(Nc2ccc3c(c2)CC[C@@H](N(CC2CC4C=CC2C4)CC2CC4C=CC2C4)CC3)nn1-c1cc2c(nn1)-c1ccccc1CCC2 (stereo partly drawn) [Compound 37, 1-(6,7-dihydro-5H-benzo[6,7]cyclohepta[1,2-c]pyridazin-3-yl)-N^3-((7S)-7-(di(bicyclo[2.2.1]hept-2-en-5-ylmethyl)amino)-6,7,8,9-tetrahydro-5H-benzo[7]annulene-2-yl)-1H-1,2,4-triazole-3,5-diamine]
Second: Nc1nc(Nc2ccc3c(c2)CC[C@@H](NCC2CC4C=CC2C4)CC3)nn1-c1cc2c(nn1)-c1ccccc1CCC2 (stereo partly drawn) [Compound 38, 1-(6,7-dihydro-5H-benzo[6,7]cyclohepta[1,2-c]pyridazin-3-yl)-N^3-((7S)-7-((bicyclo[2.2.1]hept-2-en-5-ylmethyl)amino)-6,7,8,9-tetrahydro-5H-benzo[7]annulene-2-yl)-1H-1,2,4-triazole-3,5-diamine]
The IC50 of the first is higher: 1000 to 10000 nM for the first, under 1000 nM for the second.

First: CC(C)CCN[C@H]1CCc2ccc(Nc3nc(N)n(-c4cc5c(nn4)-c4ccccc4CCC5)n3)cc2CC1 [Compound 39, 1-(6,7-dihydro-5H-benzo[6,7]cyclohepta[1,2-c]pyridazin-3-yl)-N^3-((7S)-7-(3-methylbutylamino)-6,7,8,9-tetrahydro-5H-benzo[7]annulene-2-yl)-1H-1,2,4-triazole-3,5-diamine]
Second: CC(C)CCN(CCC(C)C)[C@H]1CCc2ccc(Nc3nc(N)n(-c4cc5c(nn4)-c4ccccc4CCC5)n3)cc2CC1 [Compound 40, 1-(6,7-dihydro-5H-benzo[6,7]cyclohepta[1,2-c]pyridazin-3-yl)-N^3-((7S)-7-(di(3-methylbutyl)amino)-6,7,8,9-tetrahydro-5H-benzo[7]annulene-2-yl)-1H-1,2,4-triazole-3,5-diamine]
The IC50 of the first is lower: under 1000 nM for the first, 1000 to 10000 nM for the second. The first is the more potent here.

First: CC=CCN(CCCC)[C@H]1CCc2ccc(Nc3nc(N)n(-c4cc5c(nn4)-c4ccccc4CCC5)n3)cc2CC1 [Compound 43, 1-(6,7-dihydro-5H-benzo[6,7]cyclohepta[1,2-c]pyridazin-3-yl)-N^3-((7S)-7-(butyl(but-2-enyl)amino)-6,7,8,9-tetrahydro-5H-benzo[7]annulene-2-yl)-1H-1,2,4-triazole-3,5-diamine]
Second: CN(C)[C@H]1CCc2ccc(Nc3nc(N)n(-c4cc5c(nn4)-c4cccnc4CCC5)n3)cc2CC1 [Compound 47, 1-(6,7-dihydro-5H-pyrido[2′,3′:6,7]cyclohepta[1,2-c]pyridazin-3-yl)-N^3-((7S)-7-(dimethylamino)-6,7,8,9-tetrahydro-5H-benzo[7]annulene-2-yl)-1H-1,2,4-triazole-3,5-diamine]
The IC50 of the first is lower: under 1000 nM for the first, 1000 to 10000 nM for the second. The first is the more potent here.

Compared with `CC(C)(C)OC(=O)N[C@H]1CCc2ccc(Nc3nc(N)n(-c4cc5c(nn4)-c4cccnc4CCC5)n3)cc2CC1` [Compound 44], `Nc1nc(Nc2ccc3c(c2)CC[C@@H](N)CC3)nn1-c1cc2c(nn1)-c1cccnc1CCC2` [Compound 46, 1-(6,7-dihydro-5H-pyrido[2′,3′:6,7]cyclohepta[1,2-c]pyridazin-3-yl)-N^3-((7S)-7-amino-6,7,8,9-tetrahydro-5H-benzo[7]annulene-2-yl)-1H-1,2,4-triazole-3,5-diamine] is lower in IC50: over 20000 nM for the first, under 1000 nM for the second. The second is the more potent here.

Same assay, conditions: Hela cells, stimulated by Axl-antibody cross-linking, phospho-Akt chemiluminescence; Table 3, formula (II)

For `Nc1nc(Nc2ccc(N3CCC(N4CCCC4)CC3)c(F)c2)nn1-c1cc2c(nn1)-c1cccnc1CCC2` [Compound 45, 1-(6,7-dihydro-5H-pyrido[2′,3′:6,7]cyclohepta[1,2-c]pyridazin-3-yl)-N^3-(3-fluoro-4-(4-(pyrrolidin-1-yl)piperidin-1-yl)phenyl)-1H-1,2,4-triazole-3,5-diamine], the IC50 was over 20000 nM.

Reference: patent publication US9173882B2, “Polycyclic heteroaryl substituted triazoles useful as Axl inhibitors” (Rigel Pharmaceuticals, Inc., priority 2008, dated 2015)
